# Measured values published in US6740494B2, “Nuclear matrix protein fluid assay” (Matritech, Inc., priority 1991, dated 2004).
# System: MCF7 cells
# Test: Cytotoxic reagent assay: Doxorubicin, MTT live cells and 41/7 ELISA
# Format: cell-based
# Conditions: 450 nM, 1-96 hours, MCF7, FIG. 7
# Description: 2. In this experiment, the effect of a known cancer chemotherapeutic agent (Doxorubicin, Sigma Inc.) on soluble nuclear matrix protein release into extracellular fluid was assessed.
# A standard curve for live cells was established with MCF7 cells (breast carcinoma, adherent). Cells were seeded into 6 well plates in 2 mls of DME complete (5% FCS+SerXtend) with 0.5 micrograms/ml mitomycin C (Sigma, Inc., Cincinnati) to prevent any cell growth.
# After incubating overnight at 37° C., 200 μl of 3-[4, 5 Dimethylthiazol-2-4] 2, 5-dipheny(tetrazoluim bromide), MTT, stock solution (5 mg/ml MTT in phosphate-buffered saline, Sigma, Inc.) were added to each well. After the plates were incubated for four hours at 37° C. and 5% CO2 the supernatants were aspirated off and 4 mls of DMSO (dimethyl sulfoxide) were added to solubilize remaining crystals. This was drawn off and the absorbance was read in the spectrophotometer at 562 nm against a blank of straight DMSO.
# Cells were treated with Doxorubicin as follows: MCF7 cells were seeded into 6 well plates at a density of 1.3×10^5 cells/well in 2 mls DME complete. […]
# At 1, 24, 48, 72, and 96 hours, the supernatants were removed and frozen at −20° C. to assay later. After replacing the supernatant with a fresh 2 ml of DME complete, the number of live cells was determined using the same procedure as for the standard curve. […]
smiles,measurement,value
COc1cccc2c1C(=O)c1c(O)c3c(c(O)c1C2=O)C[C@@](O)(C(=O)CO)C[C@@H]3O[C@H]1C[C@H](N)[C@H](O)[C@H](C)O1 [Doxorubicin],cell viability (MTT live cells) versus nuclear matrix protein released (41/7 ELISA),inversely related to nuclear matrix protein released
